Results from US8722035B2, “Formulations including digestive enzymes, polysorbate-based surfactants and probiotics” (Master Supplements, Inc., priority 2007, dated 2014).

Columns and labels:
[1] = system: Lactobacillus acidophilus LA-1; experiment: Growth of Lactobacillus acidophilus LA-1 in broth, plated on MRS agar (Examples 1 and 4); format: cell-based
Description: • I) Lactobacillus acidophilus LA-1 was inoculated at one (1) million CFU/ml into 500 ml of sterile broth medium conta Ming 2% casein, 2% corn starch, 0.1% calcium carbonate, 0.1% magnesium carbonate, and 0.05% yeast extract (Difco); a medium in which it is difficult to achieve significant Lactobacillus growth but which contains typical nutrients found in human diets. The inoculated broth (contained in 1 L Erlenmeyer flasks) was incubated at 37 C for 24 hours and then plated on MRS auar to determine CFU/ml. Result (average of triplicate samples): 12 million CFU/ml. • II) The test in (I) was repeated where the medium also contained 0.1% Tween-80. Result: 14 million CFU/ml. • III) The test in (I) was repeated where the medium was pre-treated with digestive enzymes for 24 hours prior to sterilization at 121 C for 20 minutes at 15 psi. The pre-treatment involved adding 250 mg of a lactogenic enzyme mixture containing papain (10,000 TU), bromelain (50 GDU), alpha-amylase (1,000 SKB) and glucoamylase (2.5 AG). Result: 87 million CFU/ml • IV) The test in (III) was repeated where 0.1% Tween-80 (as DP35) was added during the enzyme pre-treatment procedure. […]

[2] = system: Lactobacillus rhamnosus HN001; experiment: Growth of Lactobacillus rhamnosus HN001 in broth, plated on MRS agar (Example 2); format: cell-based; settings: procedures of Example 1, untreated Test I 6 million CFU/ml
Description: • I) Lactobacillus acidophilus LA-1 was inoculated at one (1) million CFU/ml into 500 ml of sterile broth medium conta Ming 2% casein, 2% corn starch, 0.1% calcium carbonate, 0.1% magnesium carbonate, and 0.05% yeast extract (Difco); a medium in which it is difficult to achieve significant Lactobacillus growth but which contains typical nutrients found in human diets. The inoculated broth (contained in 1 L Erlenmeyer flasks) was incubated at 37 C for 24 hours and then plated on MRS auar to determine CFU/ml. Result (average of triplicate samples): 12 million CFU/ml. • II) The test in (I) was repeated where the medium also contained 0.1% Tween-80. Result: 14 million CFU/ml. • III) The test in (I) was repeated where the medium was pre-treated with digestive enzymes for 24 hours prior to sterilization at 121 C for 20 minutes at 15 psi. The pre-treatment involved adding 250 mg of a lactogenic enzyme mixture containing papain (10,000 TU), bromelain (50 GDU), alpha-amylase (1,000 SKB) and glucoamylase (2.5 AG). Result: 87 million CFU/ml • IV) The test in (III) was repeated where 0.1% Tween-80 (as DP35) was added during the enzyme pre-treatment procedure.
• The procedures of Example 1 were repeated with Lactobacillus rhamnosus HN001 substituted for Lactobacillus acidophilus LA-1. The results are as follows: Test I): 6 million CFU/ml. Test II): 7.5 million CFU/ml. Test III): 62 million CFU/ml.

[3] = system: Lactobacillus paracasei F-19; experiment: Growth of Lactobacillus paracasei F-19 in broth, plated on MRS agar (Example 3); format: cell-based; settings: procedures of Example 1, untreated Test I 14 million CFU/ml
[4] = system: Bifidobacterium lactis BL04; experiment: Anaerobic growth of Bifidobacterium lactis BL04 in broth, plated on MRS agar plus L-cysteine HCl (Example 5); format: cell-based; settings: inoculum 2 million CFU/ml, casein/rye/asparagus/barley broth, anaerobic 37 C, 24 hours, 0.025% Tween-80, 250 mg enzyme mixture, 24 h pre-treatment, untreated Test I 8 million CFU/ml
Description: • I) Bifidobacterium lactis BL04 was inoculated at two (2) million CFU/ml into 500 ml of sterile broth medium containing 2% casein, 1% rye flour, 1% asparagus powder (ground freeze-dried asparagus), 1% barley flour, 0.1% calcium carbonate, 0.1% magnesium carbonate, and 0.05% yeast extract (Difco); a medium in which it is generally difficult to achieve significant Bifidobacteria growth but contains typical nutrients fbund in human diets. The inoculated broth (contained in 1 L Erlenmeyer flasks) was incubated anaerobically at 37 C for 24 hours and then plated on MRS agar plus L-cysteine HCl, to determine CFU/ml (plates were incubated anaerobically), Result (average of triplicate samples): 8 million CFU/ml. • II) The test in I) was repeated where the medium also contained 0.025% Tween-80. Result: 3 million CFU/ml. • III) The test in I) was repeated where the medium was pre-treated with digestive enzymes for 24 hours prior to sterilization at 121 C for 20 minutes at 15 psi. The pre-treatment involved adding 250 mg of a bifidogenic enzyme mixture containing cellulase-TL (1,000 CU), hemicellulase (1,000 HCU), beta-glucanase (50 BGU), papain (10,000 TU) and bromelain (50 GDU). Result 74 million CFU/ml. • IV) The test in III) was repeated where 0.025% Tween-80 was added during the enzyme pre-treatment procedure.

[5] = system: Bifidobacterium bifidum BB-12; experiment: Growth of Bifidobacterium bifidum BB-12 in broth (Example 6); format: cell-based; settings: untreated Test I 11 million CFU/ml
[6] = hydrophile-lipophile balance, designated from 1 to 20; cited from earlier work

In the case of `CCCCCCCC/C=C\CCCCCCCC(=O)OCCOCC(OCCO)C1OCC(OCCO)C1OCCO` (stereo not shown) [Tween-80, polyoxyethylene sorbitan monooleate], the “viable count of L. acidophilus LA-1 after incubation” value ([1]; Example 1, inoculum 1 million CFU/ml, casein/corn starch broth, 37 C, 24 hours, 0.1% Tween-80, 250 mg enzyme mixture, 24 h pre-treatment, untreated Test I 12 million CFU/ml) is reported as 14 million CFU/ml, the “viable count of L. rhamnosus HN001 after incubation” value [2] is reported as 7.5 million CFU/ml and the “viable count of L. paracasei F-19 after incubation” value [3] is reported as 19 million CFU/ml. The “viable count of Bifidobacterium lactis BL04 after incubation” value [4] was 3 million CFU/ml, the “viable count of Bifidobacterium bifidum BB-12 after incubation” value [5] was 5 million CFU/ml and the HLB [6] was 15.0.

In the case of “polyoxyethylene sorbitan monostearate [Tween-60]”, the “viable count of L. acidophilus LA-1 after incubation” value ([1]; Example 4, procedures of Example 1 with different enzyme mixture and Tween-60 in place of Tween-80, untreated Test I 10 million CFU/ml) is reported as 9 million CFU/ml.
